Test results as given in patent publication US20200101056A1, “USE OF ROCK INHIBITORS FOR PROMOTING SINONASAL EPITHELIAL CELL REPAIR” (priority 2018, published 2020).

What was measured:
Format in all cases: cell-based, human
pNEC = experiment: Pilot study of Y-27632 dose on epithelial repair in pNEC
Description: pNECs were injured mechanically (3 wounds/well, 3 wells/condition), using a well-established, highly reproducible technique^32,34,37. After wounding, the cultures were washed to remove detached cells, and then randomly treated in either of the following conditions (performed in triplicate): 1) negative control: 0.5% (v/v) of LB, 2) exposure to SA exoproducts, (at both concentrations of 0.25% and 0.5% (v/v) SA filtrate), and 3) exposure to SA exoproducts (both concentrations of 0.25% and 0.5% (v/v) SA filtrate) and the ROCK inhibitor Y-27632 dihydrochloride (5 μM, Sigma-Aldrich®).
A mark on wells allowed us to capture images of the wounds at exactly the same place at t=0 h and t=6 h using an inverted microscope with a 4× objective (Nikon Eclipse™ TE 2000). Images were registered using AxioVision™ 4.8 software (Carl Zeiss, Jena, Germany) and then analyzed with Image J software (NIH, Bethesda, Md., USA) to measure areas at t=0 h and t=6 h of wound healing and then to calculate the repair rates (expressed in μm^2/h).
The effect of a potent Rho kinase (ROCK) inhibitor, Y-27632, on epithelial repair in pNECs exposed to SA exoproducts was assessed. It was first determined, in a pilot study, that 5 μM was the optimal dose for Y-27632 in pNEC.

[1] = test system: pNECs from CRSwNP patients; experiment: Analysis of lamellipodial dynamics by kymograph, pNECs from CRSwNP patients; conditions: SA 0.5% + Y-27632 5 μM, 0-2 h and 2-4 h, CRSwNP pNECs (FIG. 6)
Protocol: Brightfield time-lapse series were made on pNECs from patients with CRSwNP and control subjects plated in 2-well silicone culture inserts (Ibidi #80209, Fitchburg, USA) using an inverted Axio ObserverZ1 microscope equipped with a CoolSNAP™ EZ CCD camera and a 10×/0.3 NA air objective lens, and then analyzed by AxioVision™ software.
Immediately prior to image acquisition, cells were treated with LB (control condition for SA) or LB+water (control condition for SA+Y-27632). Cells were then positioned into the incubation chamber (37° C., 5% CO2) and images were captured every minute for 2 h to observe cell protrusions and retractions. Then, cells were treated with either SA exoproducts (concentration of 0.5% (v/v)) or a mix of SA (concentration of 0.5% v/v) and Y-27632 (5 μM), with the recording pursued during the following 4 h.
A one pixel-wide line crossing the cell membrane perpendicularly to the lamellipodia was drawn, and this region was extracted from each image of the time-lapse series, as previously described by Choi et al.^38. […] Data derived from these segmented lines were generated using “read velocity tsp macro” of ImageJ and used to calculate the length and velocity of each protrusion. At least a total of 40-110 individual protrusion events per condition and at least 14 different cells were analyzed in 3 independent time-lapse series.

[2] = test system: nasal epithelia from CRSwNP patients; experiment: Immunofluorescence of cytoskeleton and lamellipodial cell quantification at the wound edge, nasal epithelia from CRSwNP patients; conditions: 4 h
Protocol: pNECs were grown to confluency on coverslips (precision cover glasses thickness No. 1.5H, Marienfeld, Lauda-Konigshofen, Germany) coated with Purecol™. After injury, (3 mechanical wounds/coverslip), cell monolayers were washed and then treated with either: 1) LB (concentration of 0.5% (v/v)): negative control, 2) SA exoproducts (concentration of 0.5% (v/v) SA filtrate) and 3) SA exoproducts (concentration of 0.5% (v/v) SA filtrate) and Y-27632 (5 μM). After 4 h of repair, cell monolayers were fixed with 4% paraformaldehyde in PBS for 5 min, permeabilized with 0.1% Triton™ X-100 in PBS for 10 min. After blocking (in 1% BSA in PBS for at least 1h at 4° C.), fixed cells were incubated with the primary anti-β-tubulin antibody (1:1000 in PBS+BSA1%, Millipore, Etobicoke, Canada) for 1 h at room temperature, and then with Alexa Fluor®-488 conjugated goat anti-mouse antibody secondary antibody (1:2000 in PBS+BSA1%,1 h, room temperature Thermo Fischer Scientific, Waltham, USA). F-actin was stained with Phalloidin-Alexa Fluor® 594 (1 unit, Thermo Fischer Scientific) (in PBS+BSA1%, for 1 h at room temperature) and nuclei with DAPI (1:1000 in PBS+BSA1%, for 5 min). Coverslips were mounted with ProLong® Gold Antifade Reagent (Molecular Probes, Eugene, USA) on SuperFrost™ glass slides (Thermo Fisher Scientific). Images were acquired with an inverted confocal microscope (TCS SP5, Leica Microsystems, Wetzlar, Germany) using an oil-immersion objective 63×/1.4. On immunofluorescence images, cells at the wound edge were classified according to the categories “with” or “without” lamellipodia as well as “ambiguous morphology” (see FIG. 10)^39. Percentages of cells in each category were then calculated.

[3] = test system: pNECs monolayers from CRSwNP patients; experiment: Wound healing assay (epithelial repair rate) of injured pNECs monolayers from CRSwNP patients; conditions: 6 h
Protocol: diagnosis was performed according to the 2004 AAO-HNS guidelines^31, and patients underwent ESS following failure of medical treatment. Control patients underwent ESS for cerebral spinal fluid leak or non-secreting pituitary adenomas. Exclusion criteria for both groups comprised immune deficiencies, neoplasia, ciliary dyskinesia, cystic fibrosis, and systemic immunosuppression. Tissues obtained during surgery at the level of anterior ethmoidal bulla (control) or the polyp itself ([…]) were immediately collected for subsequent cell isolation and culture. After recovery, pNECs were isolated following a standardized procedure^32-35. […] After 18 h, Fetal Bovine Serum was added to the solution to neutralize the protease-DNase activity, and pNECs were gently scraped off the remaining tissue. […] Images were registered using AxioVisionTM 4.8 software (Carl Zeiss, Jena, Germany) and then analyzed with Image J software (NIH, Bethesda, Md., USA) to measure areas at t=0 h and t=6 h of wound healing and then to calculate the repair rates (expressed in μm^2/h).

[4] = CRSwNP, SA 0.5% + vehicle (SA) or SA 0.5% + Y-27632 5 μM (SA+Y) (FIG. 7B)

In the case of `C[C@@H](N)[C@H]1CC[C@H](C(=O)Nc2ccncc2)CC1` [Y-27632], the “increase in epithelial repair rate” value (pNEC; 5 μM, in LB condition) is reported as 23%, the “effect of increasing concentrations on pNECs” value (pNEC; concentrations above 5 μM) is reported as “altered migration and induced pNECs apoptosis” and the “optimal dose in pNEC” value (pNEC; pilot study) is reported as 5 μM. For the same compound, the “length and velocity of protrusions after SA+Y vs. LB” value [1] was “non-significant”, the cells with lamellipodia [2, 4] was 65% and the cells without lamellipodia [2, 4] was 8%. For the same compound, the “lamellipodial extensions at the leading edge (cytoskeleton organization)” value ([2]; SA 0.5% + Y-27632 5 μM, CRSwNP (FIG. 7A)) was “partially restored lamellipodial extensions”, the “increase of repair rates compared to corresponding SA condition in the absence of Y-27632” value ([3]; Y-27632 5 μM co-cultured with SA 0.25%) was 1.86 fold and the “increase of repair rates compared to corresponding SA condition in the absence of Y-27632” value ([3]; Y-27632 5 μM with SA 0.5%) was 2.22 fold.
